Earlier results as cited in patent US20040266650A1, “Washing and/or cleaning article” (priority 2001, published 2004).
In brackets after ≈: the same amount, converted by molar mass. Read-outs that look alike come from different tables or passages of the source. Values belong to the molecule of their own block, whether it stands above or below them.

Molecule: O=C(O)CC(O)C(=O)O (racemic) [DL-Malic acid]
Solubility (Table 2, in water at 26° C.): 1440 mg/mL (≈ 10700 mM)
Solubility (Table 3, in water at 26° C.): 1440 mg/mL (≈ 10700 mM)

Molecule: [Cl-].[Cs+] [Cesium chloride]
Solubility (Table 2, in water at 20° C.): 1800 mg/mL

Solubility (Table 2, in water at 25° C.): 680 mg/mL (≈ 3770 mM)
Molecule: O=C[C@H](O)[C@@H](O)[C@@H](O)[C@H](O)CO [D(+)-Galactose]

Molecule: O=C(CO)[C@@H](O)[C@H](O)[C@@H](O)CO [L-(−)-Sorbose]
Solubility (Table 2, in water at 17° C.): 550 mg/mL (≈ 3050 mM)

Solubility (Table 2, in water at 25° C.): 788 mg/mL (≈ 6790 mM)
Solubility (Table 3, in water at 25° C.): 788 mg/mL (≈ 6790 mM)
Molecule: O=C(O)/C=C\C(=O)O [Maleic acid]

Molecule: [Cl-].[K+] [Potassium chloride]
Solubility (Table 2, in water at 20° C.): 340 mg/mL

Molecule: NC(N)=O [Urea]
Solubility (Table 2, in water at 20° C.): 1080 mg/mL (≈ 18000 mM)

Molecule: [Cl-].[Cl-].[Zn+2] [Zinc chloride]
Solubility (Table 2, in water at 20° C.): 3680 mg/mL

Solubility (Table 2, in water at 20° C.): 1000 mg/mL
Solubility (Table 3, in water, no temperature printed (Table 2: 20° C.)): 1000 mg/mL
Molecule: Sodium polyphosphate
